# Experiments:
# Dipeptidyl peptidase 8 = Dipeptidyl peptidase 8 (Homo sapiens, UniProt Q6V1X1)
# Dipeptidyl peptidase 9 = Dipeptidyl peptidase 9 (Homo sapiens, UniProt Q86TI2)
# Dipeptidyl peptidase 9, sequence (Q86TI2 whole entry): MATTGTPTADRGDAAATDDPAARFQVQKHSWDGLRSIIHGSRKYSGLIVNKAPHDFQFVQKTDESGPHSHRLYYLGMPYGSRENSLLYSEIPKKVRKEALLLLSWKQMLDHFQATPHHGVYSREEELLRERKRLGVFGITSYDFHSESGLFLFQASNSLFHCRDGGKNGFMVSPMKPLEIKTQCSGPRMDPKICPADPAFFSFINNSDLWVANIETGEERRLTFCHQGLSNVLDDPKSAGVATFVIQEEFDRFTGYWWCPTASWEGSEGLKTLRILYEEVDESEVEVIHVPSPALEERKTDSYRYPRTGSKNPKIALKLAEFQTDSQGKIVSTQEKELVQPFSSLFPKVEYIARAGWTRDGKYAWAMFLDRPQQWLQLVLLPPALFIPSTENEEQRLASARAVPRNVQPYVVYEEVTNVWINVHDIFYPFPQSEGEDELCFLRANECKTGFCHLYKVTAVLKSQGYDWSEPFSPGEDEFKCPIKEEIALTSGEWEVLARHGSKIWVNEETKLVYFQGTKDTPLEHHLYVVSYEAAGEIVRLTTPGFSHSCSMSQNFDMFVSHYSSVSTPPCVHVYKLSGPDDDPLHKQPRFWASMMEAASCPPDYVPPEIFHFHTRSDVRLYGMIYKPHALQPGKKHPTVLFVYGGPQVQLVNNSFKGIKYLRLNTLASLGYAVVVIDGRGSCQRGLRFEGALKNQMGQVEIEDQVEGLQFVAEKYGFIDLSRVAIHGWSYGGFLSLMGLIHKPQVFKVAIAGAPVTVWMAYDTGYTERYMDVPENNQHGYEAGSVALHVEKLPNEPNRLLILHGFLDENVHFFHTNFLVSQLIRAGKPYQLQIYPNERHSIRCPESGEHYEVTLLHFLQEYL
# Dipeptidyl peptidase 8, sequence (Q6V1X1 whole entry): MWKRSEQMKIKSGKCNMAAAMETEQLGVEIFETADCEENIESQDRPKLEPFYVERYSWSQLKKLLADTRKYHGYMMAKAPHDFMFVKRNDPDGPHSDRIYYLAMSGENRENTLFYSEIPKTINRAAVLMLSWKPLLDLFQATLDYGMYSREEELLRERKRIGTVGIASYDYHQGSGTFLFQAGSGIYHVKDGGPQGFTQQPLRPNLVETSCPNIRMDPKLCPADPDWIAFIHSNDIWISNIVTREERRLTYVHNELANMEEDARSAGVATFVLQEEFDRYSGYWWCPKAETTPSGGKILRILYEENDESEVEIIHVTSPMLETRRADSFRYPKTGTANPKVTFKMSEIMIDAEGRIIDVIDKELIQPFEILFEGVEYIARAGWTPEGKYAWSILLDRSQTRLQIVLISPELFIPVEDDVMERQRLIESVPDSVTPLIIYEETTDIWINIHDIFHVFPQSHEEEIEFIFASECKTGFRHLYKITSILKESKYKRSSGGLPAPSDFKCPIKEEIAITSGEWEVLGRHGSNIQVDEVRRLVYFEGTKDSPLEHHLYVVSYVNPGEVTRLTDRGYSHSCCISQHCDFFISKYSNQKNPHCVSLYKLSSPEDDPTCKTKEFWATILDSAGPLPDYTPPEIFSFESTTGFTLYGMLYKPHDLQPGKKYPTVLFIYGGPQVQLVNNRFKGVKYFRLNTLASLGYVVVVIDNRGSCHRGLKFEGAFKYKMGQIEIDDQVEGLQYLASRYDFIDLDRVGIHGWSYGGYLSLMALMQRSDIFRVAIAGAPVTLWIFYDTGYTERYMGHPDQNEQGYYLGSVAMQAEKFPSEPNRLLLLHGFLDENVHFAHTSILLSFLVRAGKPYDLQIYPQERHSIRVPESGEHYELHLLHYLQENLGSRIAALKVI
structure (smiles),measurement,setting,value
C#C[C@H]1CC[C@@H](C#N)N1C(=O)CNC1CCCC1,Ki,Dipeptidyl peptidase 8,> 30 µM
same,Ki,Dipeptidyl peptidase 9,> 30 µM

# Source: ChEMBL document CHEMBL1137403, “Discovery of 2-[4-{{2-(2S,5R)-2-cyano-5-ethynyl-1-pyrrolidinyl]-2-oxoethyl]amino]- 4-methyl-1-piperidinyl]-4-pyridinecarboxylic acid (ABT-279): a very potent, selective, effective, and well-tolerated inhibitor of dipeptidyl peptidase-IV, useful for the treatment of diabetes” (J Med Chem, 2006)
